Series [1] deals with S. typhi clinical isolate. Put plainly: Minimal inhibitory concentration (MIC), broth dilution. Type of series: cell-based. On the technique in general: In broth dilution the organism is exposed to a series of concentrations in liquid medium.
Series [2] relates to A. baumanii. As to the kind of experiment: Minimal bactericidal concentration (MBC). Type of series: cell-based. Particulars: Acinetobacter baumannii. The procedure: (§1) After determining the MIC for the target compounds, the minimal bactericidal concentration (MBC) for each compound that is required to kill each one of the above-mentioned microorganisms was assessed.
The test system of series [3] is C. albicans. Put plainly: Minimal bactericidal concentration (MBC). The class given is cell-based. The note with it: Candida albicans. On the procedure:
as §1

The test system of series [4] is NFKB2. Type of series: in vivo, rats. Particulars: Mean ± SE. The procedure: (§2) Rats were divided randomly into equal fifteen groups, each containing 9 rats as follows: • Group 1: Rats were kept on standard laboratory chow and water ad libitum to serve as a control. • Group 2: Rats have injected IP with sterile distilled water (4ml/kg) daily for one week to serve as a control. • Group 3: Rats have injected IP with DEMSO (dimethyl sulfoxide) (4 ml/kg) daily for one week to serve as a control. • Group 4: Rats have injected IP with 4h (1.9 mg/kg) daily for one week. • Group 5: Rats have injected IP with 4h (3.8 mg/kg) daily for one week. • Group 6: Rats have injected IP with 4i (1.9 mg/kg) daily for one week. • Group 7: Rats have injected IP with 4i (3.8 mg/kg) daily for one week. • Group 8: Rats were infected by a single IM injection of S. aureus strain [1.0 ml) 1 × 10^7) colony-forming units]. • Group 9: Rats have injected IP with 4h (1.9 mg/kg) daily for one week on the 7th day after induction of infection by a single IM injection of S. aureus strain [1.0 ml (1 × 10^7) colony-forming units. • Group 10: Rats have injected IP with 4h (3.8 mg/kg) daily for one week on the 7th day after induction of infection by a single IM injection of S. aureus strain [1.0 ml (1 × 10^7) colony-forming units]. • Group 11: Rats were infected by a single IM injection of S. typhi strain [1.0 ml (1 × 10^7) colony forming units). • Group 12: Rats have injected IP with 4h (1.9 mg/kg) daily for one week. on the 7th day after induction of infection by a single IM injection of S. typhi strain [1.0 ml (1 × 10^7) colony-forming units]. • Group 13: Rats have injected IP with 4h (3.8 mg/kg) daily for one week on the 7th day after infection by a single IM injection of S. typhi strain [1.0 ml (1 × 10^7) colony-forming units]. • Group 14: Rats have injected IP with 4i (1.9 mg/kg) daily for one week. on the 7th day after induction of infection by a single IM injection of S. typhi strain [1.0 ml (1 × 10^7) colony-forming units]. • Group 15: Rats have injected IP with 4i (3.8 mg/kg) daily for one week. on the 7th day after induction of infection by a single IM injection of Salmonella strain [1.0 ml (1 × 10^7) colony-forming units].
Immunohistochemistry (IHC) was performed on paraffin sections and mounted on positively charged slides to detect caspase-3 as an indicator for apoptosis and nuclear factor kappa-light-chain-enhancer of activated B cells (NFKB2) for inflammation by using the avidin-biotin-peroxidase complex (ABC) method. The exact methodology was carried out as previously described in detail.
Caspase-3 and NFKB2 immunostaining were measured as area % in a standard measuring frame in representative five fields for each subject (liver and kidneys) in all groups using 100x magnification via light microscopy transferred to the screen. […]

The subject of series [5] is E. faecalis ATCC 29212. As to the kind of experiment: Minimal inhibitory concentration (MIC), broth dilution.
For series [6], the system named is P. aeruginosa ATCC10145. The series is described as above.
For series [7], the system named is Aciento sensitive. As to the kind of experiment: Minimal bactericidal concentration (MBC). The note with it: Aciento sensitive. The class given is cell-based, A. baumanii. On the procedure: as §1
Series [8] has as its system S. aureus. As to the kind of experiment: Biochemical analysis in S. aureus-infected rats. Type of series: in vivo. Particulars: first and second dose (1.9 and 3.8 mg/kg IP daily for one week). On the procedure:
The compounds 4h and 4j were dissolved in DMSO (dimethyl sulfoxide) then further dilutions were made by using sterile distilled water. The doses of both candidates were calculated according to the method given by Paget and Barnes[60]. Sterile distilled water, DEMSO, and investigated compounds (4h (1.9 and 3.8 mg/kg) and 4j (1.9 and 3.8 mg/kg)) were injected in a volume of 4 ml/kg[61]. The experiment lasts two weeks, the 1st week for induction of infection in the infected groups and the 2nd week for the administration of the compounds in all groups. […]
ALT and AST were determined[66] using commercial kits obtained from Diamond Diagnostics, Egypt.
Serum urea was determined by using the modified Berthelot–Searcy method. Serum creatinine activity was also assessed by using the application of Jaffe’s reaction.
Serum levels of the pro-inflammatory cytokine, TNF-α, were determined by the quantitative enzyme immunoassay (EIA) kit purchased from R&D Systems (USA) according to the method of Howard and Harada[69], while that of anti-inflammatory cytokine IL-10 was according to Croft et al.. […]

Series [9] has as its system S. aureus. As to the kind of experiment: H&E histological examination of liver and kidney, S. aureus infected rats. The class given is in vivo. On the procedure:
as §2
At the end of the experiment, the animals were euthanized through cervical dislocation. After that, the liver and kidney were dissected for histological study. The procedure for histological preparations was described by Bancroft and Stevens[73]. Briefly, liver and kidney tissues were sliced to 3–4 mm thick, fixed in 10% neutral buffered formalin (10% NBF), dehydrated in graded concentrations of ethanol, cleared in xylene, and embedded in paraffin. The paraffin blocks were sectioned with a microtome at (4–6 μm) thickness and dyed with H & E stain to study the general tissue structure.

In brackets after ≈: the same amount, converted by molar mass. Read-outs that look alike come from different tables or passages of the source.

The MIC is the smallest concentration in the dilution series that meets the test's criterion for growth inhibition. A low value points to a more susceptible organism. `COc1ccc(C(=O)NN=Cc2ccc3ccccc3n2)cc1OC` [Compound 4i, N'-(quinolin-2-ylmethylene)-3,4-dimethoxybenzohydrazide]: the MIC in series [1] (Salmonella enterica, TYPHI) was 93.4 µM (≈ 31.3 µg/mL); in [5] (Enterococcus faecalis, ATCC29212) it was 93.4 µM (≈ 31.3 µg/mL); in series [6] (Pseudomonas aeruginosa, ATCC10145), 186 µM (≈ 62.5 µg/mL). Also, the MBC in [2] and in series [3] was 186 µM (≈ 62.5 µg/mL) in each case. In addition, the “NFKB2, Kidney” value in [4] (S. typhi infected rats, 1.9 mg/kg IP daily for one week) was 28.693 ± 0.4494 area %; in [4] (S. typhi infected rats, 3.8 mg/kg IP daily for one week), 11.91 ± 1.04 area %; in [4] (uninfected rats, 1.9 mg/kg IP daily for one week), 0.7513 ± 0.0671 area %; in [4] (uninfected rats, 3.8 mg/kg IP daily for one week), 0.4087 ± 0.08844 area %.
For “N'-((3a,7a-dihydro-1H-indol-3-yl)methylene)-3,4-dimethoxybenzohydrazide [Compound 4h]”, the MIC in series [1] (S. typhi (ST)) came to 12.07 µM; in series [5] (E. faecalis (EF)), 96.87 µM; in [6] (P. auriginosa (PA)), 193.40 µM. The MBC in series [7] is 96.87 µM. In addition, in series [8], the “renal and liver functions, oxidative stress and inflammatory markers (urea, creatinine, ALT, AST, GSH, MDA, TNF-α, IL-10)” value is “significant improvement in all the measured parameters”. The “kidney pathological changes (H&E)” value in series [9] (high dose (3.8 mg/kg)) is given as “marked improved renal tissue”; in series [9] (low dose (1.9 mg/kg)), “improved pathological changes”. In addition, the “liver pathological changes (H&E)” value in [9] (high dose (3.8 mg/kg)) is listed as “marked improvement in the pathological changes”; in series [9] (low dose (1.9 mg/kg)) it was “improved pathological changes”.

(Values after paper PMC9037180, “Ligand-based design and synthesis of N'-Benzylidene-3,4-dimethoxybenzohydrazide derivatives as potential antimicrobial agents; evaluation by in vitro, in vivo, and in silico approaches with SAR studies” (Journal of Enzyme Inhibition and Medicinal Chemistry, 2022).)
